Data published in ChEMBL document CHEMBL2057167, “Rapid identification of ETP-46992, orally bioavailable PI3K inhibitor, selective versus mTOR” (Bioorg Med Chem Lett, 2012).
Activity calls are given as the source filed them. No cut-off for these calls is given here.

Tests used:
[1] = target: T1, Phosphatidylinositol 4,5-bisphosphate 3-kinase catalytic subunit alpha isoform (Homo sapiens, UniProt P42336); test: Inhibition of PI3Kalpha-mediated AKT phosphorylation at Ser473 in human U2OS cells by Western blot analysis; type: cell-based
[2] = target: Serine/threonine-protein kinase mTOR (Homo sapiens, UniProt P42345); test: Inhibition of mTOR
[3] = target: T1, Phosphatidylinositol 4,5-bisphosphate 3-kinase catalytic subunit alpha isoform; test: Inhibition of PI3Kalpha assessed as accumulation of ADP
[4] = tested on: BT-474; test: Antitumor activity against human BT474 cells with PI3Kalpha […] mutated xenografted in MF-1 nude mouse assessed as tumor growth inhibition at 10 mg/kg, po qd for weekly 5 days for 2 weeks; type: functional; settings: read-out: GI
[5] = tested on: Mus musculus; test: Antitumor activity in GEMM mouse lung tumor model driven by KRasG12V oncogenic mutation assessed as tumor growth inhibition at 25 mg/kg, po qd for weekly 5 days for 3 weeks; type: functional; settings: read-out: GI
[6] = tested on: Mus musculus; test: Down regulation of phosphorylated AKT at S473 level in GEMM mouse lung tumor model driven by KRasG12V oncogenic mutation tumor at 10 mg/kg, po after 1 hr by Western blot analysis; type: functional
[7] = tested on: Lung; test: Reduction of [18F]-FDG uptake in GEMM mouse lung tumor model driven by KRasG12V oncogenic mutation lung after 45 mins by PET-CT analysis; type: functional, tissue-based
[8] = species: Mus musculus; test: Reduction of [18F]-FDG uptake in GEMM mouse lung tumor model driven by KRasG12V oncogenic mutation tumor after 45 mins by PET-CT analysis; type: functional; settings: Neoplasm
[9] = target: Phosphatidylinositol 4,5-bisphosphate 3-kinase catalytic subunit beta isoform (Homo sapiens, UniProt P42338); test: Inhibition of human PI3Kbeta by HTRF assay; settings: read-out: Ki(app)
[10] = target: T2, Phosphatidylinositol 4,5-bisphosphate 3-kinase catalytic subunit delta isoform (Homo sapiens, UniProt O00329); test: Inhibition of human PI3Kdelta by HTRF assay; settings: read-out: Ki(app)
T2 sequence (O00329 whole entry): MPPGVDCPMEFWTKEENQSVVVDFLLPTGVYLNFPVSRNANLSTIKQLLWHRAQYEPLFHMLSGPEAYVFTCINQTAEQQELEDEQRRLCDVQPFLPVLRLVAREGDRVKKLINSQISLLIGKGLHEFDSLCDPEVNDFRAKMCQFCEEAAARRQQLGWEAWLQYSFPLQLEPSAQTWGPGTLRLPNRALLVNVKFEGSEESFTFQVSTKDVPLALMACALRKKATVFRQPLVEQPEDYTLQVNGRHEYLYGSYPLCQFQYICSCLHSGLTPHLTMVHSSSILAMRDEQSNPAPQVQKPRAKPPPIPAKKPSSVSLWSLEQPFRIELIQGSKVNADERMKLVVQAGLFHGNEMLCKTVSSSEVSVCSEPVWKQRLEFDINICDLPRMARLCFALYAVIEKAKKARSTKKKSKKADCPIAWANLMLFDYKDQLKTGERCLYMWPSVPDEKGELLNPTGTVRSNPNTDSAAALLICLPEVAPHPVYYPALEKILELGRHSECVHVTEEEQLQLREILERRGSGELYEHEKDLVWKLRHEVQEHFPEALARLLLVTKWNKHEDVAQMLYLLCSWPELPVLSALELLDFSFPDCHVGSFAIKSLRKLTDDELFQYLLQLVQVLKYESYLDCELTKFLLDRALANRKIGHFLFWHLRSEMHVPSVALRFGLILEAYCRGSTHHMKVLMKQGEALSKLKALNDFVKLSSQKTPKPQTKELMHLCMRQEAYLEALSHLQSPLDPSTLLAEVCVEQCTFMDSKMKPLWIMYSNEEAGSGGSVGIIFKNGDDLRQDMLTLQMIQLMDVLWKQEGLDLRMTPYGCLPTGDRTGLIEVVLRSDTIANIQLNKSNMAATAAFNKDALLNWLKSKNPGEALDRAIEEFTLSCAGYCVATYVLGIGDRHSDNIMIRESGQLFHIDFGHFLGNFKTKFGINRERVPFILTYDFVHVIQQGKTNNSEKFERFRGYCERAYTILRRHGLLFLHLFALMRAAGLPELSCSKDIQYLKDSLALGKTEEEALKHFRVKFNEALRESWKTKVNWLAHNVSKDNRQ

[11] = target: Phosphatidylinositol 4,5-bisphosphate 3-kinase catalytic subunit gamma isoform (Homo sapiens, UniProt P48736); test: Inhibition of PI3Kgamma assessed as accumulation of ADP; settings: read-out: Ki(app)
[12] = species: Homo sapiens; test: Selectivity ratio of IC50 for mTOR to IC50 for PI3Kalpha
[13] = target: CYP2C19 (Homo sapiens, UniProt P33261); test: Inhibition of CYP2C19 at 10 uM; type: ADME
[14] = target: T3, CYP1A2 (Homo sapiens, UniProt P05177); test: Inhibition of CYP1A2 at 10 uM; type: ADME
T3 sequence (P05177 whole entry): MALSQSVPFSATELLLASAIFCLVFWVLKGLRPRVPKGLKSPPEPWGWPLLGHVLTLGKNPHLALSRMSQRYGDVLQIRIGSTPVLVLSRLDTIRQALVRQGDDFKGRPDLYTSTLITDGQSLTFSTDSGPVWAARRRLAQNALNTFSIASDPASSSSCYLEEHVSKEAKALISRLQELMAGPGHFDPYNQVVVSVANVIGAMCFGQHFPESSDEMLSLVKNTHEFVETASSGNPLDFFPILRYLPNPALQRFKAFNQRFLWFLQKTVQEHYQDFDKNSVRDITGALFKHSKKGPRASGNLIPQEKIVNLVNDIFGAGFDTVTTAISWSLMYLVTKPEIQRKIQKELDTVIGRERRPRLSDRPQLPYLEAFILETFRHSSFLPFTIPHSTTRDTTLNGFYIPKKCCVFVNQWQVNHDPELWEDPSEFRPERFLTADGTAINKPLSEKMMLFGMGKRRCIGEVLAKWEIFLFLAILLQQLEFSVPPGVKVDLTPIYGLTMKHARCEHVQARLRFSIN

[15] = tested on: MDR1 (P-gp), human; test: Apparent permeability from apical to basolateral side in MDCK cells over expressing human MDR1 at 2 uM after 150 mins; type: ADME, cell-based, Canis lupus familiaris; settings: dog
[16] = tested on: MDR1 (P-gp), human; test: Efflux ratio of permeability from basolateral to apical side over apical to basolateral side in MDCK cells over expressing human MDR1 at 2 uM after 150 mins; type: ADME, cell-based, Canis lupus familiaris; settings: dog
[17] = target: CYP2C9 (Homo sapiens, UniProt P11712); test: Inhibition of CYP2C9 at 10 uM; type: ADME
[18] = target: CYP3A4 (Homo sapiens, UniProt P08684); test: Inhibition of CYP3A4 at 10 uM; type: ADME
[19] = target: CYP2D6 (Homo sapiens, UniProt P10635); test: Inhibition of CYP2D6 at 10 uM; type: ADME
[20] = Metabolic stability in human liver microsomes assessed as compound remaining at 1 uM after 15 mins; type: ADME, Microsome; settings: read-out: Stability
[21] = Metabolic stability in mouse liver microsomes assessed as compound remaining at 1 uM after 15 mins; type: ADME, Microsome; settings: read-out: Stability

T1 sequence (P42336 whole entry, canonical isoform): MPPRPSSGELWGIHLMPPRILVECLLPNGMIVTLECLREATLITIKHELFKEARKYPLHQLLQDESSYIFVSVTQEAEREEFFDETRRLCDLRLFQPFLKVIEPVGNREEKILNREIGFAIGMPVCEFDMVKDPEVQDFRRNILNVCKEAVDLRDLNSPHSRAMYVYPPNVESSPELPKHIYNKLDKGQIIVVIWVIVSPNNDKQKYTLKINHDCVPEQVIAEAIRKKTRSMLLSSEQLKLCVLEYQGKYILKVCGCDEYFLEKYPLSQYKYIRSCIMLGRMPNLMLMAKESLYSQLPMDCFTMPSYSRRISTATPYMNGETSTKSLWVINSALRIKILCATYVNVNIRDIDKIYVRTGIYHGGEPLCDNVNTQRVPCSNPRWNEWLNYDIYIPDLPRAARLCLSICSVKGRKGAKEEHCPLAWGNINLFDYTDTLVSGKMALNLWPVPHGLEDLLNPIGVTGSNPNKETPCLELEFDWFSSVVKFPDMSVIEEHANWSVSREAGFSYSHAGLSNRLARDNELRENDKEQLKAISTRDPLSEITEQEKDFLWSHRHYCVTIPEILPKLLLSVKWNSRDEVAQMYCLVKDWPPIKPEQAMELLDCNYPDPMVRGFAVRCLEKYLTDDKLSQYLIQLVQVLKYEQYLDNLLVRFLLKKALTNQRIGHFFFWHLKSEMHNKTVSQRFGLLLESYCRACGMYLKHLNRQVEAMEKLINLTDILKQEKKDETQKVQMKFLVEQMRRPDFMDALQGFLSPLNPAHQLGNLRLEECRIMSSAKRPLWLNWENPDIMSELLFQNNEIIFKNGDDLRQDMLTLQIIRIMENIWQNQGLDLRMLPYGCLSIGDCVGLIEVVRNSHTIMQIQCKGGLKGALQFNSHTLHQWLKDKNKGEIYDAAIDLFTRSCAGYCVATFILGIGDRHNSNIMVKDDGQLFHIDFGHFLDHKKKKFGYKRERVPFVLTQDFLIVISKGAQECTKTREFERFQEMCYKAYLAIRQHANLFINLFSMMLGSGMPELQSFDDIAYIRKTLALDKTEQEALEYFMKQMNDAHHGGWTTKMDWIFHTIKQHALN
Sequence of Phosphatidylinositol 4,5-bisphosphate 3-kinase catalytic subunit gamma isoform (P48736 whole entry, canonical isoform): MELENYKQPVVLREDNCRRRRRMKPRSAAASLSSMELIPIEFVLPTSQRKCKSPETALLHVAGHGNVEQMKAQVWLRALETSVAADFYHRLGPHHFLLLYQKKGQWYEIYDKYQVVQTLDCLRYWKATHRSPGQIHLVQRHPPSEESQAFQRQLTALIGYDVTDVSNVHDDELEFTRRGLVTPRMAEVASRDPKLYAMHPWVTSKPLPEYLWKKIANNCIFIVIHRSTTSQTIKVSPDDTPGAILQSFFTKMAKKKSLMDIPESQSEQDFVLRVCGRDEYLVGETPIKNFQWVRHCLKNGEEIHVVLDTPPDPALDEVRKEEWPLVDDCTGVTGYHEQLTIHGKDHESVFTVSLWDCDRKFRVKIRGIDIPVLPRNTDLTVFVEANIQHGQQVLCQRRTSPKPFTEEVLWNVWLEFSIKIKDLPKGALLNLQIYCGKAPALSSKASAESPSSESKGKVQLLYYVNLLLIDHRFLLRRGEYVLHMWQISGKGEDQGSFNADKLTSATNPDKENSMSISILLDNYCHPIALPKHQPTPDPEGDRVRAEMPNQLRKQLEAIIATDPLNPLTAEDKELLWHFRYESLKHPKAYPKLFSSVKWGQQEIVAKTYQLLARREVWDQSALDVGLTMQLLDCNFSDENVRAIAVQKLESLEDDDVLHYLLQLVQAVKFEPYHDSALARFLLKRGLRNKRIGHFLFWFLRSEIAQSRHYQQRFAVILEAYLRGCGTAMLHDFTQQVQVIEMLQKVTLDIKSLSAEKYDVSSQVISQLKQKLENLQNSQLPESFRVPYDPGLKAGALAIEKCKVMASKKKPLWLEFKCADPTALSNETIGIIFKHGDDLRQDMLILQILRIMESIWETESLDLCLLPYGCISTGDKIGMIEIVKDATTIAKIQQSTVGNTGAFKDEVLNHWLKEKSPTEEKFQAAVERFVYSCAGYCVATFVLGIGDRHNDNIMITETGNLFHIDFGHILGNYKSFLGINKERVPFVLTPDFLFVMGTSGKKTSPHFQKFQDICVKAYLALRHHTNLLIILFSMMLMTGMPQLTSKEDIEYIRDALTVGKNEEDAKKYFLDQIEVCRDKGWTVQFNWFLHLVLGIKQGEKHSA
Sequence of CYP2C19 (P33261 whole entry): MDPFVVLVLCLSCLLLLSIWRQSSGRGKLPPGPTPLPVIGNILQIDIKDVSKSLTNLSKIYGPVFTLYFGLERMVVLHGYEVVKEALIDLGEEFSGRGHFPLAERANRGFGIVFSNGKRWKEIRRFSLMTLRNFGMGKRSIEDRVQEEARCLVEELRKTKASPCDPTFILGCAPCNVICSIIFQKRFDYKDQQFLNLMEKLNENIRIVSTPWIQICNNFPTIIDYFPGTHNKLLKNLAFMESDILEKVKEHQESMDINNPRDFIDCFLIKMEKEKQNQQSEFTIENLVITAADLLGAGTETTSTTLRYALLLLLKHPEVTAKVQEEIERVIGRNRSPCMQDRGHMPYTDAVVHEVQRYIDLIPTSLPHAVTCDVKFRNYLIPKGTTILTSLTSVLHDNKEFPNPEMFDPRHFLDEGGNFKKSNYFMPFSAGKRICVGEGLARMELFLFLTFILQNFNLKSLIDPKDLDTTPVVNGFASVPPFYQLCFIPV
Sequence of CYP2C9 (P11712 whole entry): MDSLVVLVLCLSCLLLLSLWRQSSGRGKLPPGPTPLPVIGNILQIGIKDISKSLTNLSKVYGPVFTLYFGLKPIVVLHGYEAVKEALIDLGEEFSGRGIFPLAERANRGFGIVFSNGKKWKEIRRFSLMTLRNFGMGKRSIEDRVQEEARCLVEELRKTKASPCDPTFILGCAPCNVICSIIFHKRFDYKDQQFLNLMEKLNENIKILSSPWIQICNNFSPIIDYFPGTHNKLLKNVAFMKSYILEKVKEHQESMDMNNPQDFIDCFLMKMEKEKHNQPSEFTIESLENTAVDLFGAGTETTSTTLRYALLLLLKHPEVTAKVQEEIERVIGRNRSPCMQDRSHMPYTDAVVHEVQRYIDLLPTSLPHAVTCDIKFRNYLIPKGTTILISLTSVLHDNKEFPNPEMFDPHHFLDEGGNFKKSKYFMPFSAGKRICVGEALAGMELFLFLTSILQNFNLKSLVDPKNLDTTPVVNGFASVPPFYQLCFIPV
Sequence of CYP3A4 (P08684 whole entry): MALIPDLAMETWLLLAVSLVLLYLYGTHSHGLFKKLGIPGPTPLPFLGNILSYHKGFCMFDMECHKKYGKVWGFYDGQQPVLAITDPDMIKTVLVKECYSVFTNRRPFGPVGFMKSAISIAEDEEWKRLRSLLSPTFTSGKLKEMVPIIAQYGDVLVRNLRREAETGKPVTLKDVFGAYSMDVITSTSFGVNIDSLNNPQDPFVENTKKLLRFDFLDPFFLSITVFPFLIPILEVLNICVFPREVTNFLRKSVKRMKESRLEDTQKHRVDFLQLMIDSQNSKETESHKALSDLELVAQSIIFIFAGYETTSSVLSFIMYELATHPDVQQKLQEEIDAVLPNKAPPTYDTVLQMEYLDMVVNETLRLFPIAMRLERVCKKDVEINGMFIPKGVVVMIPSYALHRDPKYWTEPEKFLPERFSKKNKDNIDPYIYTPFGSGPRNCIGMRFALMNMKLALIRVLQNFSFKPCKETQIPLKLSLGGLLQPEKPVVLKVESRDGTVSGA
Sequence of Phosphatidylinositol 4,5-bisphosphate 3-kinase catalytic subunit beta isoform (P42338 whole entry, canonical isoform): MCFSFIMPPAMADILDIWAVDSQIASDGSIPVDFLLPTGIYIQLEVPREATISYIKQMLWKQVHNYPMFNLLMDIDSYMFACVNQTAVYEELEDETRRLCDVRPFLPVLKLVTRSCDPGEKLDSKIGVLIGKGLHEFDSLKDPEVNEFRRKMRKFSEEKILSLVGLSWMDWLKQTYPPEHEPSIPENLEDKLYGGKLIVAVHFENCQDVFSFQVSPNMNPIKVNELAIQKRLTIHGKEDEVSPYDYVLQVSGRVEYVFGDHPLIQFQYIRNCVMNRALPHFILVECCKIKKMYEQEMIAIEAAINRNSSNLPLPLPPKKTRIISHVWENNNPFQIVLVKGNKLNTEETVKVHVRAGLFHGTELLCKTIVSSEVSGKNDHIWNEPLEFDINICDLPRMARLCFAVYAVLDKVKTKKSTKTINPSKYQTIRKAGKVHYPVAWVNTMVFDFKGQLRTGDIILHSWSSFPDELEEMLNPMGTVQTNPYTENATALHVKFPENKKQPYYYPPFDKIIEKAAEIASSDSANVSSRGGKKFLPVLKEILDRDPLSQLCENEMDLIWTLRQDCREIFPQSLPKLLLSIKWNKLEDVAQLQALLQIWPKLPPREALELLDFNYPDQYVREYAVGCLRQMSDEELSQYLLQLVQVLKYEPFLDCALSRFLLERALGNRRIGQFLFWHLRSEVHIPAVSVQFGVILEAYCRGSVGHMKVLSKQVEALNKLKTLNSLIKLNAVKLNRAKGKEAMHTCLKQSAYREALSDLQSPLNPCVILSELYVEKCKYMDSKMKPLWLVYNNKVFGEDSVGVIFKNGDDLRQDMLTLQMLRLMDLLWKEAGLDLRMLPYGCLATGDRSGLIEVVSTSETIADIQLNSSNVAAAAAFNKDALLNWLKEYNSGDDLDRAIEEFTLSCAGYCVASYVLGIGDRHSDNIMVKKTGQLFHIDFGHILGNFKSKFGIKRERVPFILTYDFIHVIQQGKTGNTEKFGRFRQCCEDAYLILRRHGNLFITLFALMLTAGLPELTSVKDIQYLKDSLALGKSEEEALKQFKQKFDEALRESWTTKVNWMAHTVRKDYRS

SMILES	IC50 [1]	IC50 [2]	IC50 [3]	other results
CN(C)CCCNC(=O)c1cn2cc(-c3cccc4[nH]ncc34)nc(N3CCOCC3)c2n1	429 nM	–	–	–
COCCNC(=O)c1cn2cc(-c3cnc(N)nc3)nc(N3CCOCC3)c2n1	14 nM	2290 nM	2.7 nM	–
COCCNC(=O)c1cn2c(Cl)c(-c3cnc(N)nc3)nc(N3CCOCC3)c2n1	35.1 nM	–	11.2 nM	–
Nc1ncc(-c2cn3cc(C(=O)NCCN4CCOCC4)nc3c(N3CCOCC3)n2)cn1	34.3 nM	> 5000 nM	10.4 nM	–
CN(C)CCCNC(=O)c1cn2cc(-c3cnc(N)nc3)nc(N3CCOCC3)c2n1	8.7 nM	> 5000 nM	0.6 nM	–
CN(C)CCNC(=O)c1cn2cc(-c3cnc(N)nc3)nc(N3CCOCC3)c2n1	30.3 nM	> 5000 nM	4.6 nM	–
Nc1ncc(-c2cn3cc(C(=O)NC4CCOCC4)nc3c(N3CCOCC3)n2)cn1	–	751 nM	–	–
COCCNC(=O)c1nc2c(N3CCOCC3)nc(-c3cnc(N)nc3)cn2c1C	–	–	–	inhibition in vivo at 10 mg/kg [4]: 58%; inhibition in vivo at 25 mg/kg [5]: 61%; Activity [6]: >70%; Activity [7]: Active; Activity [8]: Active; Ki [9]: 94.1 nM; Ki [10]: 8 nM; Ki [11]: 62.9 nM
COCCCNC(=O)c1cn2cc(-c3cnc(N)nc3)nc(N3CCOCC3)c2n1	26 nM	> 5000 nM	3.2 nM	–
Nc1ncc(-c2cn3cc(C(=O)N[C@H]4CC[C@H](O)CC4)nc3c(N3CCOCC3)n2)cn1	70 nM	989 nM	–	Ratio IC50 [12]: > 50
NC(=O)c1cn2cc(-c3cnc(N)nc3)nc(N3CCOCC3)c2n1	1.8 nM	237 nM	0.4 nM	inhibition at 10 µM [13]: 13%; inhibition at 10 µM [14]: 24%; Papp A→B at 2.5 h, 2 µM [15]: 15.4 ×10⁻⁶ cm/s; efflux ratio at 2.5 h, 2 µM [16]: 0.9; inhibition at 10 µM [17]: 5%; inhibition at 10 µM [18]: 17%; inhibition at 10 µM [19]: 8%; remaining at 0.25 h, 1 µM [20]: 90%; Ratio IC50 [12]: > 50; remaining at 0.25 h, 1 µM [21]: 92%
